According to US20240317816A1, “PEPTIDES FOR IMMUNOTHERAPY” (Genevive, Inc., priority 2021, published 2024):

Columns and labels:
CXCR3 = biological target: T1, CXCR3 (Homo sapiens, UniProt P49682); test: Positive allosteric modulator assay method 2 (PAM2), CXCR3-bla U2OS; assay type: cell-based; design: TEV protease site; Gal4-VP16 transcription factor ('Ga14-VP16' [sic]); Tango cell line; host or cells: Tango GPCR-bla U2OS; settings: varying CXCL11, fixed peptide concentration
T1 sequence (P49682 1-368): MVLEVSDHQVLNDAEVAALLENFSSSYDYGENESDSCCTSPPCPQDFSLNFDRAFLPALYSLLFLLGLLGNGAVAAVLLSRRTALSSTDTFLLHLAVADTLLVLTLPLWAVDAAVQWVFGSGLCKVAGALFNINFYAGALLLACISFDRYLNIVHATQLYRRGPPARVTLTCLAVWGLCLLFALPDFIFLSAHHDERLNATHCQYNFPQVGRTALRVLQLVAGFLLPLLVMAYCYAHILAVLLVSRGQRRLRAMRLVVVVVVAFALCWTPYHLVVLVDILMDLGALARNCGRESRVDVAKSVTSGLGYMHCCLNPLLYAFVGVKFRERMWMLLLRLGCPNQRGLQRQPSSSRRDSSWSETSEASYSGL
Source text: (§1) Tango™ CXCR3-bla U2OS cells contain the human chemokine (C-X-C motif) receptor 3 linked to a TEV protease site and a Ga14-VP16 transcription factor stably integrated into the Tango™ GPCR-bla U2OS cell line. This parental cell line stably expresses a beta-arrestin/TEV protease fusion protein and the beta-lactamase reporter gene under the control of a UAS response element. The Tango™ CXCR3-bla U2OS cells have been functionally validated for a response to I-TAC (CXCL11).
Positive allosteric modulation was confirmed with an additional test method using a dose response setting for CXCL11. In positive allosteric modulator assay method 2 (PAM2), cells were diluted in Assay Media to an appropriate cell density, and were added to the assay plate. CXCR3-bla U2OS were stimulated with varying concentrations of CXCL11 ligand and a pre-determined fixed concentration of either SG-3-00802 or SG-3-06683 and incubated for 30 minutes. Ligand (CXCL9, CXCL10, or CXCL11) was added at increasing concentrations to wells containing the test compound.

CXCR4 = biological target: T2, CXCR4 (Homo sapiens, UniProt P61073); test: gpcrMAX PathHunter β-Arrestin Assay; assay type: cell-based
T2 construct: host or cells: U2OS
T2 sequence (P61073 whole entry): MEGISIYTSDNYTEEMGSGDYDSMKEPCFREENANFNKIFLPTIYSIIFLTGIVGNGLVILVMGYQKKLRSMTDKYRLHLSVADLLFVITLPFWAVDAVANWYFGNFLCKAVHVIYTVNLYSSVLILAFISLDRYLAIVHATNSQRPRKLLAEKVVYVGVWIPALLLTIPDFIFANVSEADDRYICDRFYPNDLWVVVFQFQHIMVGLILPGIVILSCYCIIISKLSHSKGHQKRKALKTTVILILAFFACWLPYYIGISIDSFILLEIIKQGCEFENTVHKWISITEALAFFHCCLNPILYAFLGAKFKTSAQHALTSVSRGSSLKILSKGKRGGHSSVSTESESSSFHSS
Source text: The PathHunter® β-Arrestin Assay monitored activation of a panel of 168 G-protein coupled receptors (GPCRs) with […] activation of the GPCR in agonist and antagonist mode.
where the test sample is the peptide, the vehicle control is DMSO (0% activity), and the control ligand is control compound (100% activity).
Peptides SG-3-00802 and SG-3-05021 were identified as an agonist, an antagonist, a PAM (Positive Allosteric Modulator), or an inverse-agonist. Agonist, antagonist, PAM, and inverse-agonist were identified according to the guidelines in Table 8. The basal activity/noise is a % activity of −20% to 20% for both agonist and antagonist modes. A PAM (Positive Allosteric Modulator) binds to a receptor, at a different site than the agonist, to change the receptor's response to the agonist. An inverse-Agonist is a binding partner with agonistic shutting down of basal activity in the cell. An antagonist antagonizes the activity of a particular binding partner.

RENCA cells = test: RENCA murine adenocarcinoma model, anti-tumor activity; assay type: in vivo, BALB/c female mice; settings: for tumor volume: 2.5 mg/kg peritumorally daily; for survival: initial dosing
Description: (§2) To determine anti-tumor activity of SG-3-00802 in vivo, the RENCA murine adenocarcinoma model was used. It is a syngeneic, standardized experimental model of metastatic RCC. Briefly, BALB/c female mice were inoculated subcutaneously with RENCA cells. Established tumors were treated daily with 2.5 mg/kg SG-3-00802 peritumorally, alone or in combination with intraperitoneal administration of 10 mg/kg anti-PD-1 antibody.
Additional studies were performed to test survival and tumor volume responses to a re-challenge event. In one study, mice were allocated into dosing groups when tumors reached ˜100 mm^3. During the initial dosing study, time 0 was the first day of seven days of dosing. […] Re-implantation was completed on day 39 after dosing completion. Treated mice were tumor free for >20 days before being re-challenge. […] Tumor volume and survival was monitored as previously described. In the re-challenge experiment, time 0 is day 10 after re-challenge dosing.
as §2, with “SG-3-05021” for “SG-3-00802”, “used.” for “used. It is a syngeneic, standardized experimental model of metastatic RCC.”

[1] = biological target: T3, human chemokine (C-X-C motif) receptor 3 (Homo sapiens, UniProt P49682); test: Positive allosteric modulator assay method 1 (PAM1), Tango CXCR3-bla U2OS; assay type: cell-based
T3 construct: TEV protease site; Gal4-VP16 transcription factor ('Ga14-VP16' [sic]); Tango cell line; host or cells: Tango GPCR-bla U2OS
T3 sequence (P49682 1-368): T1 sequence (P49682 1-368)
Source text: To assay positive allosteric modulator activity of SG-3-00802 (SEQ ID NO: 1) and SG-3-006683 in CXCR3 cell lines, the cell line Tango™ CXCR3-bla U2OS was used in a positive allosteric modulator assay with two different methods, as described below.
as §1
In positive allosteric modulator assay method 1 (PAM1), cells were diluted in Assay Media to an appropriate cell density and were added to the assay plate. Peptides were added at increasing concentrations (1 nM-20 mcM) to the cells in the assay plate and incubated for 30 minutes. Ligand (CXCL9, CXCL10, or CXCL11) was added at an EC20 to all wells containing test compound. The assay plate was incubated for 16 hours at 37° C. Substrate Loading Solution was added to the assay plate and incubated for 2 hours at room temperature, in the dark. The assay plate was read on a fluorescence plate reader and the data was analyzed. PAM activity was calculated as follows:
% of PAM=((Test compound−Unstimulated)/(Stimulated−Unstimulated))×100.

[2] = test system: moDCs and allogeneic T cells; test: Mixed lymphocyte reaction (MLR) cytokine release; assay type: cell-based
Description: Twenty-four hours later, T cells isolated from allogeneic donors were added to the moDCs with the peptide of interest, SG-3-00802 or SG-3-05021, alone or in combination with anti-PD-L1 monoclonal antibody. The co-culture of cells was incubated for 72 hours, after which cell supernatants were harvested and analyzed for secretion of cytokines, IFN-g and TNF-α. […] Data shown for experiment conducted in >4 Donor PBMCs.

[3] = in combination with 10 mg/kg i.p. anti-PD-1

Sequence	activity of CXCL11 on the CXCR3 receptor (PAM2) (CXCR3)	gpcrMAX Agonist Mode (% Agonist Activity) (CXCR4) [%]	gpcrMAX Antagonist Mode (% Antagonist Activity) (CXCR4) [%]	tumor volume (RENCA cells; alone, vs PBS)	tumor volume (RENCA cells; [3])	survival (RENCA cells; in combination with anti-PD-1)	survival (RENCA cells; peptide alone)	# of animals with complete tumor regression out of total animals per group (primary study) (RENCA cells; primary study)	activity of CXCR3 in presence of ligand (PAM1) ([1]; CXCL9 at EC20)	activity of CXCR3 in presence of ligand (PAM1) ([1]; CXCL10 at EC20)	activity of CXCR3 in presence of ligand (PAM1) ([1]; CXCL11 at EC20)	IFN-γ secretion ([2]; after stimulation with anti-CD40, in combination with anti-PD-L1, 72 hours)	IFN-γ secretion ([2]; after stimulation with anti-CD40, peptide alone, 72 hours)
MKVRPSVKPMCEKCKIIRRKGRVMVICENPKHKQRQG [SG-3-00802]	enhanced the activity of the endogenous ligand CXCL11	−14	99	robust decrease in tumor volume	robust decrease in tumor volume	increased survival	increased survival	2/12	enhanced activity of CXCR3	enhanced activity of CXCR3	enhanced activity of CXCR3	–	–
LGKTDWIEKYFKVKKEKIDKMQRFLQG (peptide for immunotherapy; SG-3-05021)	–	1	10	decrease in tumor volume	decrease in tumor volume	survived a longer time	survived a longer time	–	–	–	–	increase in IFN-γ	increase in IFN-γ
